From US7557088B2, “Methods and compositions for treating conditions” (NeoPro Labs, LLC, priority 2006, dated 2009)
Values joined by “and” are separate entries in the source; they are usually repeats but may differ in a detail not shown here. Identical values can stand only once. Residues, ends and D or L forms follow the SMILES beside them. No end group written: not given here.

Columns and labels:
[1] = test system: post-surgical pain in rats; test: oral administration, von Frey withdrawal response after plantar incision; type: in vivo; details: for Withdrawal Response Post-Dose / Post-Dose change of pain threshold (arrow): morphine sulfate 3.7 mg/kg; for Withdrawal Response Post-Dose: peptides 100 mg/kg; for Withdrawal Response Post-Surgery: 150 min after surgery, before dosing; for Withdrawal Response Pre-Surgery: baseline 15 min pre-surgery; for Post-Dose change of pain threshold (arrow): peptides 100 mg/kg oral; for effect when administered with aspirin / effect when administered with Naloxone / effect on pain threshold: oral; for effect when administered with aspirin: ASA 1 mg/kg co-administered (Groups 4, 6, 9); for effect when administered with Naloxone: Naloxone 2 mg/kg co-administered (Groups 3, 5, 8); for effect on pain threshold: with 0.9% saline as Treatment 1 (Groups 2, 7, 10)
Description: Table VI below illustrates results from the oral administration of SEQ ID NO: 1 and SEQ ID NO: 153 and the effects of Naloxone and aspirin on their ability to decrease the pain threshold.
In this experiment animals were weighed and placed in the group numbers designated on the left hand column. Each group is composed of 10 rats. Animals were anesthetized with 1.8 to 4% isofluorane (delivered via a nose cone) and each received an intramuscular injection of penicillin (30,000 IU) in the triceps muscle after preparation of the foot with betadine and alcohol (SOPs VET-1 and VET-8). A 1 cm long incision of skin and fascia was made in the plantar aspect (heel, midfoot or distal pad area) of the right hind paw. No underlying muscle was incised. After hemostasis with gentle pressure, the incision was closed with one or two sutures (5-0 silk/nylon ophthalmic suture on a taper TF needle or equivalent). The wound site was covered with a mixture of polymixin B, neomycin, and bacitracin ointment. After surgery, rats were allowed to recover in their cages until behavioral testing. Prior to surgery, rats were placed individually on an elevated wire mesh floor covered with a clear plastic cage top and allowed to acclimate. Baseline pain behavior was measured as follows: Withdrawal responses to mechanical stimulation were determined using von Frey filaments applied from underneath the cage through openings (12×12 mm in the plastic mesh floor to an area adjacent to the intended incision). Each von Frey filament (Target force of 0.008 g to 300 g) was applied once starting with 0.008 g filament and continuing until a withdrawal response occurred or 300 g force was reached. The median force producing a response, determined from three tests given over a 10-min period was considered the withdrawal threshold. Rats were tested for responses 15 minutes pre-surgery, 150 minutes after surgery, and 20 minutes after treatment. Oral treatments 1 and 2 were co-administered 180 minutes after surgery. The test article/vehicle administration and pain measurements were as per Table below.
As illustrated by Table VI, SEQ ID NOs: 1 and 153 attenuate sensitization to von Frey mechanical stimuli after oral application. The response to the von Frey monofilament is in gram. Arrow up (1) indicates an increase in the pain threshold and arrow down (1) indicates a decrease in the threshold. Zero indicates no change.

[2] = feeding behavior of rats exposed to high levels of the peptide; type: in vivo; details: at least 3 days
Description: Pain is basically managed by two classes of drugs. […] The peptide has no anti-inflammatory properties and this differentiates it pharmacologically from analgesics in the NSAID's.

[3] = solubility of test article in 0.9% saline; type: physicochemical; details: 100 mg/mL: 1.4 mL of saline added to 141.5 mg, room temperature
Protocol: The test article was SEQ ID NO: 1, a white powder, which was delivered in 0.9% saline. The test article formulations were prepared on the day of study and kept at room temperature until dosing. 100 mg/kg at 1 mL/kg=100 mg/mL 1.4 mL of saline added to 141.5 mg of test article, soluble.

[4] = test system: Pseudomonas syringae pv tomato, DC3000; test: systemic resistance of Arabidopsis plants to a virulent bacterial pathogen; type: in vivo, Arabidopsis ecotype Columbia (Col-0); details: 20 μl salicylic acid 1 mM and 20 μl SEQ ID NO: 15 applied to the leaves
Protocol: Seeds of Arabidopsis ecotype Columbia (Col-0) were planted in potting soil. Plants were cultivated in a growth chamber with 10-h d (200 μmol m^−2s^−1 at 22° C.) and 14-h night (18° C.) cycles and 80% RH. Once a week plants were supplied with water and modified one-half strength Hoagland nutrient solution: 2 mM KNO 5 mM Ca(NO3)2 and trace elements, pH 7.
A virulent plant pathogen, Pst Pseudomonas syringae pv tomato, DC3000 was grown at 28° C. on King's medium B containing 40 mg/L tetracycline. Plants were inoculated with 1×10^7 cfu/ml of the pathogen in 0.01% Silwet L77 (v/v) (a surfactant) and distilled water 5 weeks after sowing. The bacterial suspension or a control solution (0.01% Silwet L77 in water) was then sprayed on the plant once.
Disease symptoms in Arabidopsis are water-soaked, spreading lesions, sometimes surrounded by chlorotic margin that eventually lead to yield loss and plant death.
To test the efficacy of SEQ ID NO: 15, some healthy and some disease plants were sprayed with salicylic acid in 0.01%. Silwet L77; some healthy and some disease plants were sprayed with SEQ ID NO: 15 in 0.01%. Silwet L77, and some healthy and some disease plants were sprayed with salicylic acid in combination with SEQ ID NO: 15 in 0.01%. Silwet L77. A control group of some healthy and some disease plants were sprayed with water in 0.01%. Silwet L77. […]

[5] = test system: Sauromatum guttatum appendix; test: heat production by Sauromatum guttatum appendix sections treated with 2,6-dihydroxybenzoic acid (2,6-DHBA); details: second experiment, application up to 50 μM, data not shown
Protocol: In one example, using Sauromatum guttatum as the experimental module, on the day of inflorescence-opening, the Sauromatum appendix (a 20-40 cm-long, slender organ) becomes warm, reaching a 32° C. temperature (Skubatz et al., 1991, Plant Physiol. 95-1084-1088). The heat generated by the appendix is generated by the mitochondria. This mitochondrial activity can be triggered by the addition of phenolic compounds, including but not limited to, salicylic acid, aspirin, and 2,6-dihydroxybenzoic acid. Test agents can be applied to the plant and the plant's temperature may be monitored in vivo.
FIG. 6 illustrates modulation of heat generated by 2,6-dihydroxybenzoic acid in the presence of the Alzheimer's peptide, Aβ 1-42, SEQ ID NO: 49 and a plant gene derived sequence in the Sauromatum guttatum appendix. One day before heat-production, sections of the appendix were placed in different solutions containing 2,6-dihydroxybenzoic acid (2,6-DHBA) with or without SEQ ID NO: 2 (FLPSEFGVDVDR) and SEQ ID NO: 51. Heat-production was monitored with thermocouples attached to the sections. A section placed in distilled water that was not generated any heat is the control (water). […] The temperature was recorded every 5 min. […] This figure illustrates that these peptides modulate thermogenicity in plants as well as animals and act as mitochondrial modulators.

opioid receptor = test: mechanism of action with Naloxone, antagonist of the opioid receptors (oral pain study); design: species or system rats; details: inferred from in vivo Naloxone co-administration, no binding test
Protocol: When Naloxene was administered with SEQ ID NO: 153 (Group 8), the effects of SEQ ID NO: 153 were reduced (compare Group 8 to Group 10) but unlike the case of Morphine (Group 3), not completely eliminated.

[6] = 20 min after oral treatment, co-administered ASA 1 mg/kg
[7] = 20 min after oral treatment, co-administered Naloxone 2 mg/kg
[8] = group later given Treatment 1 0.9% Saline + Treatment 2
[9] = group later given Treatment 1 ASA 1 mg/kg + Treatment 2
[10] = group later given Treatment 1 Naloxone 2 mg/kg + Treatment 2
[11] = group later given Treatment 1 0.9% Saline 2 mL/kg + oral Treatment 2 (morphine sulfate 3.7 mg/kg or peptide 100 mg/kg)
[12] = co-administered Naloxone 2 mg/kg

Compound | Withdrawal Response Post-Dose [1, 6] | Withdrawal Response Post-Dose [1, 7] [g] | Withdrawal Response Post-Surgery [1, 8] | Withdrawal Response Post-Surgery [1, 9] [g] | Withdrawal Response Post-Surgery [1, 10] [g] | Withdrawal Response Pre-Surgery [1, 11] [g] | Withdrawal Response Pre-Surgery [1, 9] [g] | Withdrawal Response Pre-Surgery [1, 10] [g] | Post-Dose change of pain threshold (arrow) [1, 12] | effect when administered with aspirin [1] | effect when administered with Naloxone [1] | effect on pain threshold [1] | systemic resistance to the virulent bacteria [4] | further results
CN1CC[C@]23c4c5ccc(O)c4O[C@H]2[C@@H](O)C=C[C@H]3[C@H]1C5.O=S(=O)(O)O [Morphine sulfate, reference compound] | 5.5 ± 0.80 g | 3.5 ± 0.24 | 3.8 ± 0.52 g | 4.3 ± 0.41 | 3.7 ± 0.39 | 30.4 ± 3.29 | 21.9 ± 2.13 | 28.5 ± 4.53 | 0 | aspirin reduced the effects of Morphine | the effect of Morphine is eliminated | the pain threshold is increased |  | Withdrawal Response Post-Dose ([1]; 20 min after oral treatment at 180 min after surgery, Treatment 1 0.9% Saline 2 mL/kg, listed as Morphine, sulfate): 6.6 g; Withdrawal Response Post-Dose ([1]; 20 min after oral treatment at 180 min after surgery, Treatment 1 0.9% Saline 2 mL/kg, sulfate): 6.6 ± 1.58 g
CC(C)C[C@H](NC(=O)[C@@H](N)Cc1ccccc1)C(=O)N1CCC[C@H]1C(=O)N[C@@H](CO)C(=O)O [SEQ ID NO: 1, Phe-Leu-Pro-Ser] (H-FLPS-OH; N-terminus and C-terminus assumed) |  |  |  |  |  |  |  |  |  |  |  |  |  | feeding behavior [2]: did not invoke an abnormal feeding behavior; solubility in saline [3]: soluble
O=C(O)c1ccccc1O [salicylic acid] |  |  |  |  |  |  |  |  |  |  |  |  | enough to trigger systemic resistance | 
FLPSEFGVDVDR [SEQ ID NO: 2] |  |  |  |  |  |  |  |  |  |  |  |  |  | heat generation by the peptide [5]: did not generate heat
SPLF [SEQ ID NO: 153] | 5.7 g and 5.7 ± 0.56 g | 4.7 ± 0.45 | 4.5 g and 4.5 ± 0.32 g | 4.7 ± 0.56 | 4.5 ± 0.55 | 28.1 ± 3.02 | 29.2 ± 3.21 | 29.3 ± 4.00 | 0 | improved effect | reduced | increases the pain threshold |  | binding to the opioid receptor relative to Morphine and Naloxone (opioid receptor): binds to the opioid receptor more tightly than Morphine, but less tightly than Naloxene; Withdrawal Response Post-Dose ([1]; 20 min after oral treatment at 180 min after surgery, Treatment 1 0.9% Saline 2 mL/kg): 5.0 g and 5.0 ± 0.41 g; Post-Dose change of pain threshold (arrow) ([1]; Treatment 1 0.9% Saline 2 mL/kg): 0
YGGFL [SEQ ID NO: 15] |  |  |  |  |  |  |  |  |  |  |  |  | enough to trigger systemic resistance | 
